Experimental findings from patent publication US8420668B2, “1-(2H)-isoquinolone derivative” (Chugai Seiyaku Kabushiki Kaisha, priority 2008, dated 2013) are described below.

In general, solubility refers to how much of the substance goes into solution per volume. A lower solubility goes with little dissolved substance.

Data set [1] is described as follows: Measurement of conversion rate in human plasma. The format is in vitro ADME. The conditions noted are these: 37° C., 50 μM. The procedure:
The conversion rate of exemplary compounds of the present invention in human plasma was measured. The measurement of conversion rate in human plasma was conducted using human plasma purchased from Rockland Immunochemicals, Inc. (Pennsylvania, the United States of America). Each compound was incubated at 37° C. for 6 hours in plasma at a concentration of 50 μM, subjected to deproteinization treatment, and then quantified by HPLC using an internal standard method. The conversion rate was calculated as a residual rate after 6 hours. Comparative compounds 1 and 2 described above were also tested as test compounds.

Data set [2] can be described thus: Measurement of solubility in physiological saline. The format is physicochemical. Conditions: stirred 2 hours, filtered, HPLC. The procedure: The solubility of exemplary compounds of the present invention was measured.
The measurement was carried out using an internal standard method, and a 4-point calibration curve (4000 μM, 1000 μM, 250 μM, and 31.3 μM, or 1000 μM, 250 μM, 62.5 μM, and 7.8 μM) was prepared. A sample solution (100% DMSO) was lyophilized, and each solution was added. Then, the mixture was stirred for 2 hours, and the sample dissolved in the solution was filtered. Thereafter, the filtrate was measured by HPLC (HPLC). Physiological saline was used as a solution. Note that among the test compounds used, comparative compound 1 was the compound of Example 3-26 described in International publication No. WO06/090743 (phosphoric acid dibenzyl ester(R)-2-oxo-3-[1-oxo-3-(2-trifluoromethylphenyl)-1,2-dihydroisoquinolin-7-yl]-oxazolidin-5-ylmethyl ester). Further, the optical isomer of comparative compound 1, i.e., phosphoric acid dibenzyl ester(S)-2-oxo-3-[1-oxo-3-(2-trifluoromethylphenyl)-1,2-dihydroisoquinolin-7-yl]-oxazolidin-5-ylmethyl ester, was used as comparative compound 2. An active substance of the compound of the present invention, i.e., 7-((S)-5-hydroxymethyl-2-oxooxazolidin-3-yl)-3-(2-trifluoromethylphenyl)-2H-isoquinolin-1-one, was used as comparative compound 3. Another active substance of the compound of the present invention, i.e., 7-((R)-5-hydroxymethyl-2-oxooxazolidin-3-yl)-3-(2-trifluoromethylphenyl)-2H-isoquinolin-1-one, was used as comparative compound 4.

The subject of data set [3] is human colon cancer cell line HCT116. Description: Measurement of antitumor effect in HCT116 tumor-bearing nude mice. The format is in vivo, BALB/c nude mouse. Conditions: tail vein, administered twice (day 0 and day 7), HCT116 subcutaneous xenograft, vs control group 14 days after start. The method, then:
The antitumor effect of exemplary compounds of the present invention was measured.
The antitumor effect was determined using tumor-bearing mice prepared by subcutaneously implanting a human colon cancer cell line HCT116 obtained from American Type Culture Collection (Virginia, the United States of America) into flank of each BALB/c nude mouse purchased from Charles River, Japan. The purchased nude mice were quarantined for 1 week, and thereafter about 5×10^6 HCT116 cells were subcutaneously implanted into flank of each mouse. The mice were subjected to the experiment at the time when their tumor grew to a size of about 200 mm^3.
Each compound was dissolved in an administration solution, and the solution was administered to the tail vein at 0.1 mL per 10 g of body weight of each mouse. Administration was carried out twice in total; on the initiation day of administration and 7 days after the initiation day. The antitumor effect was calculated as tumor growth inhibition by comparing with tumor growth in the administration solution-administered control group 14 days after the initiation day of administration.

The mark [4] stands for this setting: saline or isotonic, thermodynamic from solid.

The structures appear in SMILES notation. ≈ marks a conversion by molar mass, not a printed value.

Take `O=C1O[C@@H](COP(=O)(OCc2ccccc2)OCc2ccccc2)CN1c1ccc2cc(-c3ccccc3C(F)(F)F)[nH]c(=O)c2c1` [Comparative compound 1, phosphoric acid dibenzyl ester(R)-2-oxo-3-[1-oxo-3-(2-trifluoromethylphenyl)-1,2-dihydroisoquinolin-7-yl]-oxazolidin-5-ylmethyl ester, reference compound]: in data set [1], the “Residual rate (after 6 hrs., %)” value is reported as 99.5% and the “remained in human plasma after 6 hours (in words)” value is recorded as “almost all”. The compound further had a solubility at 2 h in data set [2] (setting [4]) of under 7.8 µM.
Consider `O=C1O[C@H](COP(=O)(OCc2ccccc2)OCc2ccccc2)CN1c1ccc2cc(-c3ccccc3C(F)(F)F)[nH]c(=O)c2c1` [Comparative compound 2, phosphoric acid dibenzyl ester(S)-2-oxo-3-[1-oxo-3-(2-trifluoromethylphenyl)-1,2-dihydroisoquinolin-7-yl]-oxazolidin-5-ylmethyl ester, reference compound], for which the “Residual rate (after 6 hrs., %)” value in data set [1] was determined as 95.5%. This compound also displayed a solubility at 2 h in data set [2] (setting [4]) of under 7.8 µM.
In data set [2] (setting [4]), `O=C1O[C@H](CO)CN1c1ccc2cc(-c3ccccc3C(F)(F)F)[nH]c(=O)c2c1` [Comparative compound 3, 7-((S)-5-hydroxymethyl-2-oxooxazolidin-3-yl)-3-(2-trifluoromethylphenyl)-2H-isoquinolin-1-one] came in with a solubility at 2 h of 179 µM (≈ 72.4 µg/mL).
Still for that read-out and setting: under `O=C1O[C@@H](CO)CN1c1ccc2cc(-c3ccccc3C(F)(F)F)[nH]c(=O)c2c1` [Comparative compound 4, 7-((R)-5-hydroxymethyl-2-oxooxazolidin-3-yl)-3-(2-trifluoromethylphenyl)-2H-isoquinolin-1-one] stands 193 µM (≈ 78 µg/mL).
Take `O=C1O[C@H](COP(=O)(O)O)CN1c1ccc2cc(-c3ccccc3C(F)(F)F)[nH]c(=O)c2c1` [Example 1, Mono-{(S)-2-oxo-3-[1-oxo-3-(2-trifluoromethyl-phenyl)-1,2-dihydro-isoquinolin-7-yl]-oxazolidin-5-ylmethyl}-phosphoric acid]: the “Residual rate (after 6 hrs., %)” value in data set [1] is recorded as 35.4%. This compound also registered a solubility at 2 h in data set [2] (setting [4]) of 3530 µM (≈ 1710 µg/mL).
For the compound `O=C1O[C@H](COP(=O)([O-])[O-])CN1c1ccc2cc(-c3ccccc3C(F)(F)F)[nH]c(=O)c2c1.[Na+].[Na+]` [Example 2, Mono-{(S)-2-oxo-3-[1-oxo-3-(2-trifluoromethyl-phenyl)-1,2-dihydro-isoquinolin-7-yl]-oxazolidin-5-ylmethyl}-disodium phosphate], in data set [1], the “Residual rate (after 6 hrs., %)” value is listed as 29.4% and the “remained in human plasma after 6 hours (in words)” value is reported as “almost all”. Further, the “TGI on day 14 (%)” value in data set [3] (60 mg/kg) was 85%. The same compound displayed a solubility at 2 h in data set [2] of 3527 µM.
In turn, `O=C1O[C@@H](COP(=O)(O)O)CN1c1ccc2cc(-c3ccccc3C(F)(F)F)[nH]c(=O)c2c1` [Example 6, Mono-{(R)-2-oxo-3-[1-oxo-3-(2-trifluoromethyl-phenyl)-1,2-dihydro-isoquinolin-7-yl]-oxazolidin-5-ylmethyl}-phosphoric acid] gave a solubility at 2 h in data set [2] (setting [4]) of over 4000 µM.
`O=C1O[C@@H](COP(=O)(O)O)CN1c1ccc2cc(-c3ccccc3C(F)(F)F)[nH]c(=O)c2c1` [Example 7, Mono-{(R)-2-oxo-3-[1-oxo-3-(2-trifluoromethyl-phenyl)-1,2-dihydro-isoquinolin-7-yl]-oxazolidin-5-ylmethyl}-disodium phosphate]: the “Residual rate (after 6 hrs., %)” value in data set [1] is on record as 33.4%. The “TGI on day 14 (%)” value in data set [3] (80 mg/kg) is 30%.
